SMILES strings stand for the structures.

The source of these data is patent US11478474B2, “2-(3′-(hydroxymethyl)-1-methyl-5-((5-(2-methyl-4-(oxetan-3-yl)piperazin-1-yl)pyridin-2-yl)amino)-6-oxo-1,6-dihydro-[3,4′-bipyridin]-2′-yl)-7,7-dimethyl-7,8-dihydro-2H-cyclopenta[4,5]pyrrolo[1,2-a]pyrazin-1(6H)-one as a BTK inhibitor” (HUTCHISON MEDIPHARMA LIMITED, priority 2020, dated 2022).

In experiment [1] the target is phosphorylated BTK in Ramos cells (Homo sapiens (Human), UniProt Q06187). The experiment in a line: Determination of phosphorylated BTK in Ramos cells (BTK phospho-Y223 HTRF). In kind it is cell-based. To be noted: anti-human IgM + hydrogen peroxide stimulation. The method in brief: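 Ramos cells starved 2 h in 1% FBS, then treated 1 h with compound (0.00018–3.0 μM, 0.3% DMSO). They were then stimulated 10 min at 37° C. with anti-human IgM (10 μg/mL) plus H2O2 (3.3 mM). Lysates read by BTK phospho-Y223 HTRF (665/615 nm ratio); IC50 fitted from inhibition normalized to stimulated and unstimulated controls.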
A general note: In TR-FRET formats the signal depends on donor and acceptor labels being close together.

In the next experiment the target is BTK recombinant protein (Homo sapiens (Human), UniProt Q06187). Put plainly: Determination of biochemical BTK (Z'-LYTE kinase assay). A digest of the protocol:
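Human BTK recombinant kinase (3.32 nM final) was preincubated with compound for 30 min at 4 °C. Reaction ran 1 h at room temperature with Tyr01 FRET peptide (2 μM) and ATP (32 μM); development protease then added. Coumarin 445 nm/fluorescein 520 nm emission ratio (400 nm excitation) gave inhibition across 8 concentrations, 3000–1.37 nM.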

BTK recombinant protein, sequence (Q06187 whole entry): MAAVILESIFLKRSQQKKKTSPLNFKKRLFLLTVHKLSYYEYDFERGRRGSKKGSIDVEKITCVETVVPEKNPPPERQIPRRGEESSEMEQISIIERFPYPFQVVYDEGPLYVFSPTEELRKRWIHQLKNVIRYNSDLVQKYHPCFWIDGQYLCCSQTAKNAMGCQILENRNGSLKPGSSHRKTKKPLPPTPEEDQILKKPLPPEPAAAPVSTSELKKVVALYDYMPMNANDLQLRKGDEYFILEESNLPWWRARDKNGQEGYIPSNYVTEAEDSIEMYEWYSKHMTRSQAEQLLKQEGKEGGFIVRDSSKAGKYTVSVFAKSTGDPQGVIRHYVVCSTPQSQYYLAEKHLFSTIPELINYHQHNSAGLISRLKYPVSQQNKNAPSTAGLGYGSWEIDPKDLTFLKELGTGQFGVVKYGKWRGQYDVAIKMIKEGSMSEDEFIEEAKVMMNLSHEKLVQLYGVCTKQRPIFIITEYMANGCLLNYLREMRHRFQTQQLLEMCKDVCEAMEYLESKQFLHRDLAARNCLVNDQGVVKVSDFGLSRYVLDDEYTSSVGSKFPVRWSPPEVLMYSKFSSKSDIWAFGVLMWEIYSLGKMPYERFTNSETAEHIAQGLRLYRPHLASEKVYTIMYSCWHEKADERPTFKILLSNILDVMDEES
phosphorylated BTK in Ramos cells, sequence (Q06187 whole entry): as above

`CN1CCn2nc(Nc3cc(-c4ccnc(-n5ccn6c7c(cc6c5=O)CC(C)(C)C7)c4CO)cn(C)c3=O)cc2C1=O` [Compound 15]: the IC50 (usually the concentration that inhibits the measured activity by half) was 0.012 µM in experiment [1] and 0.017 µM at BTK recombinant protein.
For `CC1Cc2cc3c(=O)n(-c4nccc(-c5cc(Nc6ccc(N7CCN(C8COC8)C[C@@H]7C)cn6)c(=O)n(C)c5)c4CO)ccn3c2C1` (mixture of isomers) [Compound 160] the same measures were 0.011 µM and 0.003 µM.
For `C[C@H]1COCCN1c1ccc(Nc2cc(-c3ccnc(-n4ncn5c6c(cc5c4=O)CC(C)(C)C6)c3CO)cn(C)c2=O)nc1` [Compound 196] the same measures were 0.007 µM and 0.002 µM.
For `Cc1c(-c2cc(Nc3ccc(N4CCN(C5COC5)C[C@@H]4C)cn3)c(=O)n(C)c2)ccnc1-n1ccn2c3c(cc2c1=O)CC(C)(C)C3` [Compound 12] the same measures were 0.013 µM and 0.23 µM.
As for `Cn1nc(-c2ccnc(-n3ccn4c5c(cc4c3=O)CC(C)(C)C5)c2CO)cc(Nc2cn(CCF)nn2)c1=O` [Compound 32], the IC50 stood at 0.03 µM in experiment [1] and 0.017 µM on BTK recombinant protein.
Regarding `Cn1cc(-c2ccnc(-n3ccn4c(c(F)c5ccccc54)c3=O)c2CO)cc(Nc2cc3n(n2)CCN(C2COC2)C3)c1=O` [Compound 178], the IC50 came out at 0.012 µM in experiment [1] and 0.006 µM at BTK recombinant protein.
`CC(C)n1cc(Nc2cc(-c3ccnc(-n4ccn5c6c(cc5c4=O)CC(C)(C)C6)c3CO)cn(C)c2=O)nn1` [Compound 6]: the IC50 (in experiment [1]; on BTK recombinant protein) was 0.002 µM throughout.
Consider `[2H]C1(N2CCN(c3ccc(Nc4cc(-c5ccnc(-n6ccn7c8c(cc7c6=O)CC(C)(C)C8)c5CO)cn(C)c4=O)nc3)[C@@H](C)C2)COC1` [Compound 94], for which the IC50 in experiment [1] amounted to 0.002 µM; on BTK recombinant protein, 0.007 µM.
For `COc1ccc(Nc2cc(-c3ccnc(-n4ccn5c6c(cc5c4=O)CC(C)(C)C6)c3CO)cn(C)c2=O)nc1` [Compound 126] the same measures were 0.02 µM and 0.026 µM.
For `C[C@H]1CN(C2COC2)CCN1c1ccc(Nc2cc(-c3ccnc(-n4ccn5c6c(cc5c4=O)CC(C)(C)C6O)c3CO)cn(C)c2=O)nc1` (mixture of isomers) [Compound 182] the same measures were 0.034 µM and 0.008 µM.
Take `Cn1cc(-c2ccnc(-n3ccn4c5c(cc4c3=O)CC(C)(C)C5)c2CO)cc(NC(=O)C2CC2)c1=O` [Compound 89]: the IC50 in experiment [1] is 0.008 µM; at BTK recombinant protein, 0.011 µM.
For `C[C@H]1CN(C2COC2)C(=O)N1c1ccc(Nc2cc(-c3ccnc(-n4ccn5c6c(cc5c4=O)CC(C)(C)C6)c3CO)cn(C)c2=O)nc1` [Compound 123] the same measures were 0.009 µM and 0.013 µM.
Take `CC[C@H]1CN(C2COC2)CCN1c1ccc(Nc2cc(-c3ccnc(-n4ncn5c6c(cc5c4=O)CC(C)(C)C6)c3CO)cn(C)c2=O)nc1` [Compound 224]: the results for the IC50 (in experiment [1]; at BTK recombinant protein) were 0.007 µM and 0.009 µM, respectively.
For `COCCN1CCn2nc(Nc3cc(-c4ccnc(-n5ccn6c7c(cc6c5=O)CC(C)(C)C7)c4CO)cn(C)c3=O)cc2C1` [Compound 70, 2-(3′-(hydroxymethyl)-5-((5-(2-methoxymethyl)-4,5,6,7-tetrahydropyrazolo[1,5-a]pyrazin-2-yl)amino)-1-methyl-6-oxo-1,6-dihydro-[3,4′-bispyridin]-2′-yl)-7,7-dimethyl-7,8-dihydro-2H-cyclopenta[4,5]pyrrolo[1,2-a]pyrazin-1(6H)-one] the same measures were 0.002 µM and 0.01 µM.
On to `C[C@H]1CN(C2CCOC2)CCN1c1ccc(Nc2cc(-c3ccnc(-n4ccn5c6c(cc5c4=O)CC(C)(C)C6)c3CO)cn(C)c2=O)nc1` (stereo partly drawn) [Compound 66], for which the IC50 in experiment [1] stood at 0.002 µM; on BTK recombinant protein, 0.011 µM.
For `CCN1CCn2nc(Nc3cc(-c4ccnc(-n5ncn6c7c(cc6c5=O)CC(C)(C)C7)c4CO)cn(C)c3=O)cc2C1` [Compound 165] the same measures were 0.031 µM and 0.004 µM.
In the case of `Cn1cc(Nc2cc(-c3ccnc(-n4ccn5c6c(cc5c4=O)CCC6)c3CO)cn(C)c2=O)nn1` [Compound 73], the IC50 in experiment [1] came out at 0.116 µM; at BTK recombinant protein, 0.216 µM.
As for `COCCN(c1ccc(Nc2cc(-c3ccnc(-n4ccn5c6c(cc5c4=O)CC(C)(C)C6)c3CO)cn(C)c2=O)nc1)C(C)C` [Compound 51], the IC50 worked out at 0.008 µM in experiment [1] and 0.01 µM at BTK recombinant protein.
For `CC(C)n1cc(Nc2cc(-c3ccnc(-n4ccn5c6c(cc5c4=O)CC(C)(C)C6)c3CO)nn(C)c2=O)nn1` [Compound 7], the IC50 is 0.003 µM in experiment [1] and under 0.001 µM on BTK recombinant protein.
For `Cn1cc(-c2ccnc(-n3ccn4c5c(cc4c3=O)CC(C)(C)C5)c2CO)cc(Nc2ccc(N3CCN(C4COC4)CC34CC4)cn2)c1=O` [Compound 231] the same measures were 0.004 µM and 0.005 µM.
For `C[C@H]1COCCN1c1ccc(Nc2cc(-c3ccnc(-n4ncn5c6c(cc5c4=O)CC(C)(C)C6)c3CO)cn(C)c2=O)nn1` [Compound 212] the same measures were 0.011 µM and 0.01 µM.
For `Cn1cc(-c2ccnc(-n3ccn4c5c(cc4c3=O)CC(C)(C)C5)c2CO)cc(Nc2ccc(C(=O)N3CCOCC3)cn2)c1=O` [Compound 47] the same measures were 0.003 µM and 0.003 µM.
With `Cc1cc(Nc2cc(-c3ccnc(-n4ccn5c6c(cc5c4=O)CC(C)(C)C6)c3CO)cn(C)c2=O)nn1C` [Compound 82], the IC50 was found to be 0.002 µM in experiment [1] and 0.006 µM at BTK recombinant protein.
For `Cn1cc(-c2ccnc(-n3ccn4c5c(cc4c3=O)CC(C)(C)C5)c2CO)cc(Nc2ccccn2)c1=O` [Compound 55] the same measures were 0.008 µM and 0.019 µM.
For `C[C@H]1COCCN1c1ccc(Nc2cc(-c3ccnc(-n4ccn5c6c(cc5c4=O)CC(C)(C)C6)c3CO)cn(C)c2=O)nc1` [Compound 10] the same measures were 0.01 µM and 0.018 µM.
For `COC1CN(c2ccc(Nc3cc(-c4ccnc(-n5ncn6c7c(cc6c5=O)CC(C)(C)C7)c4CO)cn(C)c3=O)nc2)C1` [Compound 139] the same measures were 0.011 µM and 0.039 µM.
For `C[C@H]1COCCN1c1ccc(Nc2cc(-c3ccnc(-n4ccn5c6c(cc5c4=O)CC(C)(C)C6)c3CO)cn(C)c2=O)nn1` [Compound 203], the IC50 in experiment [1] is 0.007 µM; at BTK recombinant protein, under 0.001 µM.
For `Cn1cc(-c2ccnc(-n3ccn4c5c(cc4c3=O)CC(C)(C)C5)c2CO)cc(Nc2ccc(N3CCC4(CCOC4)CC3)cn2)c1=O` [Compound 233] the same measures were 0.008 µM and 0.04 µM.
Take `Cn1cc(-c2ccnc(-n3ncn4c5c(cc4c3=O)CC(C)(C)C5)c2CO)cc(Nc2cc3n(n2)CCN(C#N)C3)c1=O` [Compound 143]: the IC50 in experiment [1] was 0.005 µM; on BTK recombinant protein, 0.004 µM.
For `C[C@H]1CN(C2COC2)CCN1c1ccc(Nc2cc(-c3ccnc(-n4ncn5c(cc6ccccc65)c4=O)c3CO)cn(C)c2=O)nc1` [Compound 151] the same measures were 0.028 µM and 0.002 µM.
As for `CN(c1ccc(Nc2cc(-c3ccnc(-n4ccn5c6c(cc5c4=O)CC(C)(C)C6)c3CO)cn(C)c2=O)nc1)C1COC1` [Compound 41], the IC50 in experiment [1] worked out at 0.002 µM; on BTK recombinant protein it was 0.012 µM.
For `Cn1cc(-c2ccnc(-n3ccn4c5c(cc4c3=O)CC(C)(C)C5)c2CO)cc(Nc2ccc(C3CN(C4COC4)C3)cn2)c1=O` [Compound 140] the same measures were 0.011 µM and under 0.001 µM.
As to `C[C@H]1CN(C2COC2)CCN1c1ccc(Nc2cc(-c3ccnc(-n4ncn5c6c(cc5c4=O)CC(C)(C)C6)c3CO)cn(C)c2=O)nn1` [Compound 213], the IC50 (in experiment [1]; at BTK recombinant protein) was 0.015 µM in each case.
With `C[C@H]1CN(C2COC2)CCN1c1ccc(Nc2cc(-c3ccnc(-n4ccn5c6c(cc5c4=O)COCC6)c3CO)cn(C)c2=O)nc1` [Compound 93], the IC50 turned out to be 0.046 µM in experiment [1] and 0.049 µM at BTK recombinant protein.
As for `C[C@H]1CNCCN1c1ccc(Nc2cc(-c3ccnc(-n4ccn5c6c(cc5c4=O)CC(C)(C)C6)c3CO)cn(C)c2=O)nc1` [Compound 96], the IC50 stood at 0.005 µM in experiment [1] and 0.007 µM at BTK recombinant protein.
For `Cn1cc(-c2ccnc(-n3ccn4c5c(cc4c3=O)CC(C)(C)C5)c2CO)cc(Nc2ccc(-c3ccc(C4COC4)cc3)cn2)c1=O` [Compound 37] the same measures were 0.011 µM and 0.132 µM.
With `C[C@H]1CN(C2COC2)CCN1c1ccc(Nc2cc(-c3ccnc(-n4ccn5c6c(cc5c4=O)CC(C)(C)C6)c3C=O)cn(C)c2=O)nc1` [Compound 72], the IC50 in experiment [1] was 0.097 µM; at BTK recombinant protein, 0.058 µM.
For `Cn1cc(-c2ccnc(-n3ccn4c5c(cc4c3=O)CC(C)(C)C5)c2CO)cc(Nc2ccncn2)c1=O` [Compound 83] the same measures were 0.013 µM and 0.013 µM.
In the case of `Cn1cc(-c2ccnc(-n3ccn4c5c(cc4c3=O)CC(C)(C)C5)c2CO)cc(Nc2ccc(N3CCC4C3CCN4C3COC3)cn2)c1=O` (stereo not drawn) [Compound 109], the values for the IC50 (in experiment [1]; at BTK recombinant protein) were 0.004 µM and 0.02 µM, respectively.
For `Cn1cc(-c2ccnc(-n3ncn4c5c(cc4c3=O)CC(C)(C)C5)c2CO)cc(Nc2cc3n(n2)CCN(C2CC2)C3)c1=O` [Compound 171] the same measures were 0.011 µM and 0.013 µM.
For the compound `Cn1cc(-c2ccnc(-n3ccn4c5c(cc4c3=O)CC(C)(C)C5)c2CO)cc(Nc2cn(CC(F)(F)F)nn2)c1=O` [Compound 30], the IC50 was 0.008 µM in experiment [1] and 0.009 µM at BTK recombinant protein.
For `CC(C)n1cc(Nc2cc(-c3ccnc(-n4ccn5c6c(cc5c4=O)CC(C)(C)C6)c3CO)cn3ncnc23)nn1` [Compound 18] the same measures were 0.004 µM and 0.004 µM.
